Read-outs that look alike come from different tables or passages of the source.
Assays:
[1] = system: adenosine uptake into HeLa cells; assay: [3H]Adenosine uptake assay in HeLa cells; assay type: cell-based; settings: [3H]adenosine accumulation in HeLa cells, compound range 10 μM to 0.032 nM, read-out: ADU inhibition IC50
How it was run: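 HeLa cells in HBSS + 5% FBS were preincubated 30 min at ambient temperature with compound (ten-point 1:3 series, 10 µM–[…] final), then given [3H]adenosine (added as a 500 nM solution) for 60 min. Cell-associated label was read by scintillating-plate proximity counting; IC50 from 4-parameter fit of cps versus log concentration.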

[2] = target: BTK enzyme (recombinant full-length BTK, hBTK) (Homo sapiens (Human), UniProt Q06187); assay: BTK enzymatic activity LANCE TR-FRET assay; assay type: biochemical; settings: 50 pM hBTK, 25 μM ATP, 2 μM biotin-A5-peptide; compound range 1 μM to 0.017 nM; read-out: BTK binding IC50
BTK enzyme (recombinant full-length BTK, hBTK), sequence (Q06187 whole entry): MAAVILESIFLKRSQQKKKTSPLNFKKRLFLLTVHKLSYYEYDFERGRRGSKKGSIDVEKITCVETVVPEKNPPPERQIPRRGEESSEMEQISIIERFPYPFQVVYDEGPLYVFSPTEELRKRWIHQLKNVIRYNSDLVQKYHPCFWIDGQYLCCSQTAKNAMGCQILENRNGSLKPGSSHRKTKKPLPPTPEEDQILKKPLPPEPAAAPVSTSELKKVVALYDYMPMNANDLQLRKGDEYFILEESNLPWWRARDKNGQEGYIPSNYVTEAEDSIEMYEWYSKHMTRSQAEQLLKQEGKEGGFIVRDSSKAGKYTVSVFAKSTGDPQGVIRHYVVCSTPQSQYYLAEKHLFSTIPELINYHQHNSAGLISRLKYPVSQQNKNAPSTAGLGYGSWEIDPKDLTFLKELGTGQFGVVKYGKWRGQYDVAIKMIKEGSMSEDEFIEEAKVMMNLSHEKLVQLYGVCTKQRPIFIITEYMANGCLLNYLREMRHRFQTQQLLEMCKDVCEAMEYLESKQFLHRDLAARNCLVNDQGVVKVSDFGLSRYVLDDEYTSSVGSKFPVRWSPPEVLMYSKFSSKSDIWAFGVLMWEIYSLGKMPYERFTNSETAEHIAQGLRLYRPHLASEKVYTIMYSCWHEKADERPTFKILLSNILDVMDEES

IC50 ([1]; Homo sapiens, HeLa) [nM] | IC50 [2] [nM] | IC50 [1] [nM] | Structure (SMILES)
2140 | 459 | – | Cc1ccc(C(F)(F)F)cc1C(O)c1ccc(-c2nc([C@@H]3CC[C@H]4CCC(=O)N4C3)n3ccnc(N)c23)cc1 (stereo partly drawn) [Example 127, (6R,8aS)-6-[8-amino-1-(4-{hydroxy[2-methyl-5-(trifluoromethyl)phenyl]methyl}phenyl)imidazo [1,5-a]pyrazin-3-yl]hexahydroindolizin-3(2H)-one]
371 | 774 | – | C[C@](O)(c1cccc(C(F)(F)F)c1)c1ccc(-c2nc([C@@H]3CC[C@H]4CCC(=O)N4C3)n3ccnc(N)c23)c(F)c1 [Example 101, (6R,8aS)-6-[8-amino-1-(2-fluoro-4-{(1S)-1-hydroxy-1-[3-(trifluoromethyl)phenyl]ethyl}phenyl)imidazo [1,5-a]pyrazin-3-yl]hexahydroindolizin-3(2H)-one]
– | 1000 | 3230 | Cc1cc(-c2nc([C@@H]3CC[C@H]4CCC(=O)N4C3)n3ccnc(N)c23)ccc1C(C)(O)c1cccc(C(F)(F)F)c1 (stereo partly drawn) [Example 42, (6R,8aS)-6-[8-amino-1-(4-{1-hydroxy-1-[3-(trifluoromethyl)phenyl]ethyl}-3-methylphenyl)imidazo [1,5-a]pyrazin-3-yl]hexahydroindolizin-3(2H)-one]
– | 2 | 10000 | CCOc1cc(C(C)(O)c2cccc(C)c2)ccc1-c1nc([C@@H]2CC[C@H]3CCC(=O)N3C2)n2ccnc(N)c12 (stereo partly drawn) [Example 166, (6R,8aS)-6-(8-amino-1-{2-ethoxy-4-[1-hydroxy-1-(3-methylphenyl)ethyl]phenyl}imidazo[1,5-a]pyrazin-3-yl)hexahydroindolizin-3(2H)-one]
487 | 1000 | – | Cc1cc([C@@](C)(O)c2cccc(C(F)(F)F)c2)ccc1-c1nc([C@@H]2CC[C@H]3CCC(=O)N3C2)n2ccnc(N)c12 [Example 103, (6R,8aS)-6-[8-amino-1-(4-{(1R)-1-hydroxy-1-[3-(trifluoromethyl)phenyl]-ethyl}-2-methylphenyl)imidazo [1,5-a]pyrazin-3-yl]hexahydroindolizin-3(2H)-one]
– | 36.7 | 3360 | CC(O)(c1cccc(C(F)(F)F)c1)c1ccc(-c2nc([C@@H]3CC[C@H]4CCC(=O)N4C3)n3ccnc(N)c23)cc1F (stereo partly drawn) [Example 60, (6R,8aS)-6-[8-amino-1-(3-fluoro-4-{1-hydroxy-1-[3-(trifluoromethyl)phenyl]ethyl}phenyl)imidazo [1,5-a]pyrazin-3-yl]hexahydroindolizin-3(2H)-one]
2440 | 7.3 | – | CC(O)(c1ccc(-c2nc([C@@H]3CC[C@H]4CCC(=O)N4C3)n3ccnc(N)c23)cc1)c1cccc(F)c1 (stereo partly drawn) [Example 16, (6R,8aS)-6-(8-amino-1-{4-[1-(3-fluorophenyl)-1-hydroxyethyl]phenyl}imidazo[1,5-a]pyrazin-3-yl)hexahydroindolizin-3(2H)-one]
7160 | 2 | – | COc1cc([C@](C)(O)c2cccc(C(F)(F)F)c2)ccc1-c1nc([C@@H]2CC[C@H]3CCC(=O)N3C2)n2ccnc(N)c12 [Example 142, (6R,8aS)-6-[8-amino-1-(4-{(1R)-1-hydroxy-1-[3-(trifluoromethyl)phenyl]ethyl}-2-methoxyphenyl)imidazo [1,5-a]pyrazin-3-yl]hexahydroindolizin-3(2H)-one]
– | 53.8 | 230 | CC(O)(c1cccc(C(F)F)c1)c1ccc(-c2nc([C@@H]3CC[C@@H]4N(C3)C(=O)CC4(C)C)n3ccnc(N)c23)c(F)c1 (stereo partly drawn) [Example 200, (6R,8aS)-6-[8-amino-1-(4-{1-[3-(difluoromethyl)phenyl]-1-hydroxyethyl}-2-fluorophenyl)imidazo[1,5-a]pyrazin-3-yl]-1,1-dimethylhexahydroindolizin-3(2H)-one]
2790 | 0.82 | – | CC1(C)C[C@@H]2CC[C@@H](c3nc(-c4ccc([C@@](C)(O)c5cccc(C(F)(F)F)c5)cc4)c4c(N)nccn34)CN2C1=O [Example 7, (6R,8aS)-6-(8-amino-1-(4-((R)-1-hydroxy-1-(3-(trifluoromethyl)phenyl)ethyl)phenyl)imidazo[1,5-a]pyrazin-3-yl)-2,2-dimethylhexahydroindolizin-3(2H)-one]

— US10214546B2, “Btk inhibitors” (MERCK SHARP & DOHME CORP., priority 2014, dated 2019)
